From US20260378560A1, “APPROACHES TO DESIGNING AND PERFORMING COMPRESSED BIOLOGICAL EXPERIMENTS AND SYSTEMS FOR IMPLEMENTING THE SAME” (EXVIVO LABS INC., priority 2023, published 2026)

Key:
[1] = system: co-culture of three cancer cell lines; experiment: Cell viability (CellTiter Glo) of compressed target pools, co-cultures of three cell lines (Target Compression); type: cell-based
Experimental: Total cell viability was measured for each cancer cell line using an Adenosine TriPhosphate (“ATP”) assay, and more specifically an ATP-based luminescence assay (i.e., CellTiter Glo). Each cancer drug was screened at multiple concentrations ranging from one nanomolar (nM) to ten micromolar (UM) in order to generate a dose-response curve and calculate a drug response score (“DRS”) for each cancer cell line. The DRS was calculated as a continuous function of multiple parameters of the non-linear dose-response curve, including the slope at the half-maximal effective concentration (also called “EC50”) and the top and bottom asymptotes of the dose-response curve. […] After total cell viability was measured and DRS was calculated, the DRS of each cancer cell line in the pool was deconvolved for each cancer drug.
Each pool represented a co-culture of three cell lines (“Target Compression”).

[2] = system: CCRF-HSB2; experiment: ATP-based luminescence cell viability (CellTiter Glo), drug response score, CCRF-HSB2; conditions: CCRF-HSB2, screened individually (Compress: None)
[3] = system: JURKAT; experiment: ATP-based luminescence cell viability (CellTiter Glo), drug response score, JURKAT; conditions: screened individually (Compress: None)
[4] = system: REH; experiment: Cell viability (CellTiter Glo), compressed perturbation pools with informed pool design, SUM-based deconvolution, REH; parameters: scale not given here
Summary of the method: (§1)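 Cells were exposed to cancer drugs at 1 nM–10 μM, and viability was read by ATP luminescence (CellTiter Glo) to fit dose-response scores. Pools were overlapping and class-informed: same-class drugs went to different cohorts, and PI3K was kept apart from MAPK inhibitors. Per-drug scores were recovered by additive SUM deconvolution, with the lowest-ranked drug anchored at zero where needed.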

[5] = system: MOLT-4; experiment: Cell viability (CellTiter Glo), compressed perturbation pools with informed pool design, SUM-based deconvolution, MOLT-4; parameters: scale not given here
Summary of the method: as §1

[6] = 5 Pick 3, Pool 1 (REH, SUP-B15, CCRF-CFM)
[7] = 5 Pick 3, Pool 2 (SUP-B15, CCRF-HSB2, MOLT-4)
[8] = 5 Pick 3, Pool 3 (SUP-B15, CCRF-CFM, CCRF-HSB2)
[9] = 5 Pick 3, Pool 4 (REH, CCRF-CFM, MOLT-4)
[10] = 5 Pick 3, Pool 5 (REH, CCRF-HSB2, MOLT-4)
[11] = 6 Pick 3, Pool 1 (REH, CCRF-CFM, MOLT-4)
[12] = 6 Pick 3, Pool 2 (REH, CCRF-HSB2, MOLT-4)
[13] = 6 Pick 3, Pool 3 (REH, CCRF-CFM, JURKAT)
[14] = 6 Pick 3, Pool 4 (SUP-B15, CCRF-HSB2, JURKAT)
[15] = 6 Pick 3, Pool 5 (SUP-B15, CCRF-CFM, JURKAT)
[16] = 6 Pick 3, Pool 6 (SUP-B15, CCRF-HSB2, MOLT-4)
[17] = 7 Pick 3, Pool 1 (SUP-B15, CCRF-CFM, JURKAT)
[18] = 7 Pick 3, Pool 2 (SUP-B15, CCRF-HSB2, NALM-6)
[19] = 7 Pick 3, Pool 3 (SUP-B15, CCRF-CFM, NALM-6)
[20] = 7 Pick 3, Pool 4 (REH, CCRF-HSB2, JURKAT)
[21] = 7 Pick 3, Pool 5 (REH, MOLT-4, NALM-6)
[22] = 7 Pick 3, Pool 6 (REH, MOLT-4, JURKAT)
[23] = 7 Pick 3, Pool 7 (CCRF-CFM, CCRF-HSB2, MOLT-4)

SMILES | DRS of pool [1, 6] | DRS of pool [1, 7] | DRS of pool [1, 8] | DRS of pool [1, 9] | DRS of pool [1, 10] | DRS of pool [1, 11] | DRS of pool [1, 12] | DRS of pool [1, 13] | DRS of pool [1, 14] | DRS of pool [1, 15] | DRS of pool [1, 16] | DRS of pool [1, 17] | DRS of pool [1, 18] | DRS of pool [1, 19] | DRS of pool [1, 20] | DRS of pool [1, 21] | DRS of pool [1, 22] | DRS of pool [1, 23] | drug response score (DRS) [2] | drug response score (DRS) [3] | further results
COc1c(OCCCN2CCOCC2)ccc2c1N=C(NC(=O)c1cnc(N)nc1)N1CCN=C21 [Copanlisib] | 10.53 | 6.47 | 8.68 | 13.21 | 10.79 | 12.63 | 9.99 | 9.72 | 6.40 | 6.40 | 6.47 | 6.55 | 7.58 | 10.22 | 7.17 | 11.88 | 8.07 | 10.65 | 6.94 | 1.34 | –
COc1cc2ncnc(Nc3ccc(F)c(Cl)c3)c2cc1OCCCN1CCOCC1 [Gefitinib] | – | – | – | – | – | – | – | – | – | – | – | – | – | – | – | – | – | – | – | – | DRS, REH, SUM [4]: 1.12; DRS, MOLT-4, SUM [5]: 2.22
N#Cc1ccnc(N2C(=O)CC[C@H]2C(=O)N(c2cncc(F)c2)[C@H](C(=O)NC2CC(F)(F)C2)c2ccccc2Cl)c1 [Ivosidenib] | 0.54 | 0.60 | 0.91 | 0.63 | 0.88 | 0.60 | 0.81 | 0.77 | 0.61 | 0.57 | 0.61 | 0.57 | 0.54 | 0.34 | 0.98 | 0.27 | 0.51 | 0.95 | 1.60 | 0.70 | –
C=CC(=O)Nc1cc(Nc2nccc(-c3cn(C)c4ccccc34)n2)c(OC)cc1N(C)CCN(C)C [Osimertinib] | – | – | – | – | – | – | – | – | – | – | – | – | – | – | – | – | – | – | – | – | DRS, REH, SUM [4]: 0.00; DRS, MOLT-4, SUM [5]: 0.54
Cc1[nH]c2ccccc2c1CCNCc1ccc(/C=C/C(=O)NO)cc1 [Panobinostat] | 17.85 | 18.46 | 20.02 | 15.81 | 16.48 | 15.05 | 15.25 | 14.41 | 18.23 | 17.93 | 18.22 | 17.85 | 18.41 | 18.84 | – | – | – | 16.92 | 17.40 | 13.20 | –
CC1(C)CCC(CN2CCN(c3ccc(C(=O)NS(=O)(=O)c4ccc(NCC5CCOCC5)c([N+](=O)[O-])c4)c(Oc4cnc5[nH]ccc5c4)c3)CC2)=C(c2ccc(Cl)cc2)C1 [Venetoclax] | 14.50 | 13.53 | 13.46 | 2.70 | 2.43 | 2.60 | 2.26 | 1.57 | 13.22 | 12.95 | 13.01 | 12.97 | 14.37 | 15.70 | 1.25 | 4.62 | 2.25 | 1.35 | 0.00 | 0.00 | DRS, REH, SUM [4]: 5.50; DRS, MOLT-4, SUM [5]: 2.44
